From patent US11458144B1, “Methods for using 5-HMF analogs with increased solubility to inhibit or reverse RBC sickling” (King Abdulaziz University, priority 2021, dated 2022)
Values belong to the molecule of their own block, whether it stands above or below them.

Assays:
[1] = system: SS RBCs; test: Antisickling study (RBC morphology) in SS blood under hypoxia; format: cell-based, human; details: 2 mM; for inhibition at 2000 µM: Homo sapiens, SS blood hematocrit 20%, 2.5% O2, 37° C., read-out: % Sickling inhibition
Procedure: (§1) The effect of the MMA compounds and positive control 5-HMF on RBC sickling, Hb modification, and Hb oxygen equilibrium was studied utilizing SS blood following previous procedure.^[27]
For the antisickling study, SS blood (hematocrit 20%) were incubated under air in the absence or presence of all the MMA compounds (0.5 mM, 1 mM and 2 mM) at 37° C. for 1 h, followed by incubating the mixture under hypoxic conditions (2.5% O2) at 37° C. for 2 h. Aliquots with fixed 2% glutaraldehyde solution and under anaerobic condition were subjected to microscopic morphological analysis.^[11]
(§2) Using homozygous sickle (SS) blood from patients, the MMA compounds (MMA502, MMA503, MMA504, MMA505, and MMA509 were tested with 5-HMF as control for Hb adduct formation, effect on Hb affinity for oxygen and corresponding antisickling activities (RBC morphology study) using previously published protocols.^14,15

[2] = target: T1, Hb (Homo sapiens, UniProt P68871+P69905, E7V); test: Oxygen equilibrium study (P50 shift) of lysates from SS blood, Hemox Analyzer; format: cell-based; details: SS RBCs
T1 construct: Using homozygous sickle (SS) blood from patients; endogenous in cells; host or cells: red blood cells of homozygous SS patient blood (hematocrit 20%); clarified lysates measured after incubation
Procedure: as §1
For the oxygen equilibrium study, about 100 μL aliquot of clarified lysate of residual samples from the above antisickling study was added to 4 mL of 0.1 M potassium phosphate buffer, pH 7.0, in cuvettes and subjected to hemoximetry analysis using Hemox™ Analyzer (TCS Scientific Corp., New Hope, Pa.) to assess P50 shift, which is the partial pressure of oxygen (PO2) at which 50% of Hb is saturated with oxygen (SO2). Degree of Hb O2 affinity shift (ΔP50) was expressed as percentage fractions of control DMSO-treated samples.
as §2

[3] = target: T1, Hb; test: Hb adduct formation (Hb modification) by cation-exchange HPLC, SS blood lysates; format: binding; details: SS RBCs
Source text: as §1
The Hb adduct formation study also used clarified lysates that were subjected to a cation-exchange HPLC (Hitachi D-7000 Series, Hitachi Instruments, Inc., San Jose, Calif.), and a weak cation-exchange column (Poly CAT A: 30 mm×4.6 mm, Poly LC, Inc., Columbia, Md.).
as §2

[4] = target: T2, HbA (Homo sapiens, UniProt P68871+P69905); test: Time-dependent Hb oxygen equilibrium study in normal whole blood; format: cell-based; details: 2 mM, 20% hematocrit
T2 construct: time-dependent P50-shift of HbA in normal blood (20% hematocrit); endogenous in cells; host or cells: red blood cells in normal whole blood of adult donors (hematocrit 20%)
Procedure: The time-dependent effect of the MMA compounds and positive control 5-HMF on Hb oxygen affinity was studied using normal blood following previous procedure.^[15] Briefly, normal blood samples (hematocrit 20%) were incubated with the compounds at 37° C. for 24 h. Aliquots were taken at various time points and incubated in IL 237 tonometers (Instrumentation Laboratories, Inc. Lexington, Mass.) for 10 minutes at 37° C., and allowed to equilibrate at oxygen tensions 6, 20, and 40 mmHg. The samples were then aspirated into an ABL 700 Automated Blood Gas Analyzer (Radiometer) to determine the pH, partial pressure of CO2 (pCO2), partial pressure of oxygen (pO2), and Hb oxygen saturation values (SO2). The measured values of pO2 (mmHg) and SO2 at each pO2 value were then subjected to a non-linear regression analysis using the program Scientist (Micromath, Salt Lake City, Utah) to estimate P50 as previously reported.^[28]
5-HMF has a short half-life and poor oral bioavailability due to this metabolic instability, which in part prevented its development for chronic use. Nonetheless, this metabolic instability could be advantageous for parenteral formulation for acute use. […] Briefly, blood samples (hematocrit 20%) were incubated with the compounds at 37° C. for 24 h, and aliquots were taken at the various time points and used to determine the PO2 and SO2 using ABL 800 Automated Blood Gas Analyzer (Radiometer), and to estimate P50 as previously reported.^[10]
The study confirmed the trend in the biological potencies observed with SS blood.

[5] = system: human cytochrome P450 (CYP) enzymes; test: In vitro CYP inhibition, panel of seven enzymes (overall statement); format: in vitro ADME; details: 0.1 to 100 μM; pooled human liver microsomes
Procedure: The probe substrates include tacrine (CYP1A2), amodiaquine (CYP2C8), tolbutamide (CYP2C9), mephenytoin (CYP2C19), dextromethorphan (CYP2D6), midazolam (CYP3A4), testosterone (CYP3A4), and bupropion (CYP2B6). […] The assays were performed in duplicate in 96-well plates at 37° C. for 10-60 minutes. The reaction was terminated with addition of methanol, followed by incubation at 4° C. for 10 min and centrifuged at 4° C. for 10 min.

% Hb-O2 affinity (P50 shift vs DMSO control) ([2]; 0.5 mM): 4.4 ± 5.1% | % Hb-O2 affinity (P50 shift vs DMSO control) ([2]; 1 mM): 5.3 ± 1.5% | % Hb-O2 affinity (P50 shift vs DMSO control) ([2]; 2 mM, listed as 504): 2.7 ± 1.2% | % Hb-O2 affinity (P50 shift vs DMSO control) ([2]; 2 mM, listed as MMA504): 3% | % Hb-modification (adduct formation) ([3]; 0.5 mM): 0.0 ± 0.0% | % Hb-modification (adduct formation) ([3]; 1 mM): 0.0 ± 1.0% | % Hb-modification (adduct formation) ([3]; 2 mM, listed as 504): 0.4 ± 0.8% | % Hb-modification (adduct formation) ([3]; 2 mM, listed as MMA504): < 1%
SMILES: O=Cc1ccc(N2CCC(O)CC2)o1 [MMA-504, 5-(4-hydroxypiperidin-1-yl)furan-2-carbaldehyde]
inhibition at 2000 µM [1]: 27%

%P50 shift ([4]; at 1 hour): 11% | duration of effect on Hb oxygen affinity ([4]; time course 0-8 hrs): completely losing activity after 3 hours | % Hb-O2 affinity (P50 shift vs DMSO control) ([2]; 0.5 mM): 5.5 ± 1.2% | % Hb-O2 affinity (P50 shift vs DMSO control) ([2]; 1 mM): 14.6 ± 2.1% | % Hb-O2 affinity (P50 shift vs DMSO control) ([2]; 2 mM, listed as 505): 32.0 ± 3.0% | % Hb-O2 affinity (P50 shift vs DMSO control) ([2]; 2 mM, listed as MMA505): 40% | % Hb-modification (adduct formation) ([3]; 0.5 mM): 4.2 ± 1.6% | % Hb-modification (adduct formation) ([3]; 1 mM): 10.4 ± 2.6% | % Hb-modification (adduct formation) ([3]; 2 mM, listed as 505): 26.7 ± 6.0% | % Hb-modification (adduct formation) ([3]; 2 mM, listed as MMA505): 27%
SMILES: N#Cc1ccc(C=O)o1 [MMA-505, 5-formylfuran-2-carbonitrile]
antisickling activity relative to 5-HMF ([1]; over 5-HMF): ~2.5 fold | inhibition at 2000 µM [1]: 55%

%P50 shift ([4]; at 1.5 hours): 60% | inhibition of liver CYP isozymes [5]: no inhibition | % Hb-O2 affinity (P50 shift vs DMSO control) ([2]; 0.5 mM): 16.3 ± 1.5% | % Hb-O2 affinity (P50 shift vs DMSO control) ([2]; 1 mM): 34.5 ± 14.4% | % Hb-O2 affinity (P50 shift vs DMSO control) ([2]; 2 mM, listed as 509): 58.5 ± 15.3% | % Hb-O2 affinity (P50 shift vs DMSO control) ([2]; 2 mM, listed as MMA509): 59% | % Hb-modification (adduct formation) ([3]; 0.5 mM): 16.2 ± 0.0% | % Hb-modification (adduct formation) ([3]; 1 mM): 27.6 ± 3.6% | % Hb-modification (adduct formation) ([3]; 2 mM, listed as 509): 53.3 ± 3.9% | % Hb-modification (adduct formation) ([3]; 2 mM, listed as MMA509): 53%
SMILES: O=Cc1ccc(C2CCCCO2)o1 (stereo not shown) [MMA-509]
